Assays:
vasopressin V1a receptor = vasopressin V1a receptor (Homo sapiens, UniProt P37288); test: In-vitro vasopressin receptor binding assay, V1a; settings: for IC50: footnote 1: IC50 values (μM); for inhibition at 1 µM / inhibition at 0.1 µM: read-out: Receptor Binding (% Inh. @ concentration in μM) V1a
cloned human V2 receptor = biological target: T1, cloned human V2 receptor (Homo sapiens, UniProt P30518); test: In-vitro vasopressin receptor binding assay, V2; settings: 3H-arginine-8-vasopressin; for IC50: footnote 1: IC50 values (μM)
T1 construct: expressed in transfected cells
Protocol: Assay buffer is 50 mM Tris-Cl, 5 mM MgC12, 0.1% BSA (pH 7.5) containing 5 ug/ml of aprotinin, leupeptin, pepstatin, 50 ug/ml bacitracin, and 1 mM Pefabloc. H3 vasopressin is ^3H-arginine-8-vasopressin (68.5 Ci/mmol, final concentration in assay is 0.65-0.75nM). Into wells of 96-well round bottom polypropylene plates are added buffer, test compound, membrane (containing cloned human V2 receptor), and H3 vasopressin. The reaction plates are allowed to sit at room temperature for one hour. The samples are filtered through Unifilter GF/C plates (presoaked in 0.3 polyethyleneimine). The plates are washed 5 times with cold physiological saline containing 0.05% Tween 20. After drying, the bottom of the filter plates are sealed and 0.025 ml of Microscint-20 is added to each filter. The top of the plate is sealed, and the plate is counted. Non-specific binding is determined by the addition of 1.25 uM arginine-8-vasopressin in those wells. %Inh. is [formula]

Chain of vasopressin V1a receptor (P37288 whole entry): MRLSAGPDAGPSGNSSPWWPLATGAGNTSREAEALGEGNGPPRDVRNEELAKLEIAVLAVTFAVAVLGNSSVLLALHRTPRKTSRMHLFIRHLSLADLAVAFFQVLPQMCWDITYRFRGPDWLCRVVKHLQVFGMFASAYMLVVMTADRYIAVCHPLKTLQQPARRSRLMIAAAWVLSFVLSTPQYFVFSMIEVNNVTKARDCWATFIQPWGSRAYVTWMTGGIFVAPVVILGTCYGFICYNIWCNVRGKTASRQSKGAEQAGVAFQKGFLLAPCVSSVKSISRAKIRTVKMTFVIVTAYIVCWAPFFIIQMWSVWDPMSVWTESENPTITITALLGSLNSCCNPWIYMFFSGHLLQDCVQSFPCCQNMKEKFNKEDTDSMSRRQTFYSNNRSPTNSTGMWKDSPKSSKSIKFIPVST

2-(2-Aminoethyl)-5-[4-(2-phenylbenzoylamino)benzoyl]-1,5-benzothiazepine [Compound 28]
Receptor Binding (% Inh. @ concentration in μM) V1a (vasopressin V1a receptor; 0.1 μM test compound): 19% @ .1
Receptor Binding (% Inh. @ concentration in μM) V2 (cloned human V2 receptor; 0.1 μM test compound): 46% 0.1

2-(2-Hydroxyethyl)-5-(4-(2-phenylbenzoylamino)-pyridinoyl)-1,5-benzothiazepine [Compound 40]
Receptor Binding (% Inh. @ concentration in μM) V1a (vasopressin V1a receptor; 0.1 μM test compound): 22% @ .1
IC50 (cloned human V2 receptor): 0.03 µM

2-(2-Hydroxyethyl)-5-(4-(2-phenylbenzoylamino)benzoyl)-1,5-benzothiazepine [Compound 26]
IC50 (vasopressin V1a receptor): 0.027 µM
IC50 (cloned human V2 receptor): 0.007 µM

2-(2-Hydroxyethyl)-5-(4-(2-phenylbenzoylamino)benzoyl)-1,5-benzothiazepine [Compound 27]
IC50 (vasopressin V1a receptor): 0.091 µM
IC50 (cloned human V2 receptor): 0.014 µM

2-(2-Hydroxyethyl)-5-(4-aminobenzenesulfonyl)-1,5-benzothiazepine [Compound 4]
Receptor Binding (% Inh. @ concentration in μM) V1a (vasopressin V1a receptor; 10 μM test compound): 21% @ 10
Receptor Binding (% Inh. @ concentration in μM) V2 (cloned human V2 receptor; 10 μM test compound): 20% @ 10

2-(2-Hydroxyethyl)-5-[2-chloro-4-(2-methyl-5-fluorobenzoylamino)benzoyl]-1,5-benzothiazepine [Compound 43]
Receptor Binding (% Inh. @ concentration in μM) V1a (vasopressin V1a receptor; 0.1 μM test compound): 4% @ .1
IC50 (cloned human V2 receptor): 0.028 µM

2-(2-Hydroxyethyl)-5-[4-(3,4-dichlorobenzoylamino)benzene-sulfonyl]-1,5-benzothiazepine [Compound 10]
Receptor Binding (% Inh. @ concentration in μM) V1a (vasopressin V1a receptor; 10 μM test compound): 0% @ 10
IC50 (cloned human V2 receptor): 2.1 µM

2-(2-Methanesulfonylethyl)-5-(4-(2-methylbenzoylamino)benzoyl)-1,5-benzothiazepine [Compound 13]
IC50 (vasopressin V1a receptor): 0.3 µM
IC50 (cloned human V2 receptor): 0.2 µM

2-(2-Methanesulfonylethyl)-5-[(4-(2-phenylbenzoylamino)-benzenesulfonyl)]-1,5-benzothiazepine [Compound 20]
Receptor Binding (% Inh. @ concentration in μM) V1a (vasopressin V1a receptor; 1 μM test compound): 24% @ 1
Receptor Binding (% Inh. @ concentration in μM) V2 (cloned human V2 receptor; 1 μM test compound): 6% @ 1

2-(2-Methanesulfonylethyl)-5-[(4-(2-phenylbenzoylamino)-benzyl)]-1,5-benzothiazepin-4-one [Compound 21]
Receptor Binding (% Inh. @ concentration in μM) V1a (vasopressin V1a receptor; 0.1 μM test compound): 5% @ 0.1
Receptor Binding (% Inh. @ concentration in μM) V2 (cloned human V2 receptor; 0.1 μM test compound): 1% @ 0.1

2-(2-Methanesulfonylethyl)-5-[(4-(2-phenylbenzoylamino)benzoyl)]-1,5-benzothiazepine [Compound 16]
IC50 (vasopressin V1a receptor): 1.2 µM
IC50 (cloned human V2 receptor): 0.013 µM

2-[N-(tert-butoxycarbonyl)-ethyl]-5-[4-(2-methylbenzoylamino)-benzyl]-1,5-benzothiazepine-4-one [Compound 6]
Receptor Binding (% Inh. @ concentration in μM) V1a (vasopressin V1a receptor; 10 μM test compound): 13% @ 10
Receptor Binding (% Inh. @ concentration in μM) V2 (cloned human V2 receptor; 10 μM test compound): 22% @ 10

CC(=O)Nc1ccc(S(=O)(=O)N2CCC(CCN(C)C)Sc3ccccc32)cc1 (stereo not drawn) [Compound 1]
Receptor Binding (% Inh. @ concentration in μM) V1a (vasopressin V1a receptor; 25 μM test compound): 14% @ 25
Receptor Binding (% Inh. @ concentration in μM) V2 (cloned human V2 receptor; 25 μM test compound): 7% @ 25

Cc1ccccc1C(=O)Nc1ccc(S(=O)(=O)N2CCC(CCN(C)C)Sc3ccccc32)cc1 (stereo not drawn) [Compound 2, 2-(2-Dimethylaminoethyl)-5-(4-(2-methylbenzoylamino)-benzenesulfonyl]-1,5-benzothiazepine]
Receptor Binding (% Inh. @ concentration in μM) V1a (vasopressin V1a receptor; 25 μM test compound): 29% @ 25
Receptor Binding (% Inh. @ concentration in μM) V2 (cloned human V2 receptor; 25 μM test compound): 34% @ 25

Cc1ccccc1C(=O)Nc1ccc(S(=O)(=O)N2CCC(CCN3CCOCC3)Sc3ccccc32)cc1 (stereo not drawn) [Compound 3, 2-[2-(N-Morpholino)-ethyl]-5-[4-(2-methylbenzoylamino)-benzenesulfonyl]-1,5-benzothiazepine]
Receptor Binding (% Inh. @ concentration in μM) V1a (vasopressin V1a receptor; 25 μM test compound): 47% @ 25
Receptor Binding (% Inh. @ concentration in μM) V2 (cloned human V2 receptor; 25 μM test compound): 37% @ 25

Cc1ccccc1C(=O)Nc1ccc(S(=O)(=O)N2CCC(CCO)Sc3ccccc32)cc1 (stereo not drawn) [Compound 5]
Receptor Binding (% Inh. @ concentration in μM) V1a (vasopressin V1a receptor; 10 μM test compound): 13% @ 10
IC50 (cloned human V2 receptor): 0.76 µM

Cc1ccccc1C(=O)Nc1ccc(CN2C(=O)CC(CCN)Sc3ccccc32)cc1 (stereo not drawn) [Compound 7, 2-(2-Aminoethyl)-5-[4-(2-methylbenzoylamino)-benzyl]-1,5-benzothiazepine-4-one]
Receptor Binding (% Inh. @ concentration in μM) V1a (vasopressin V1a receptor; 10 μM test compound): 10% @ 10
Receptor Binding (% Inh. @ concentration in μM) V2 (cloned human V2 receptor; 10 μM test compound): 4% @ 10

COc1ccc(CNCCC2CC(=O)N(Cc3ccc(NC(=O)c4ccccc4C)cc3)c3ccccc3S2)c(OC)c1 (stereo not drawn) [Compound 8]
Receptor Binding (% Inh. @ concentration in μM) V1a (vasopressin V1a receptor; 10 μM test compound): 33% @ 10
Receptor Binding (% Inh. @ concentration in μM) V2 (cloned human V2 receptor; 10 μM test compound): 32% @ 10

Cc1ccccc1C(=O)Nc1ccc(C(=O)N2CCC(CCN(C)C)Sc3ccccc32)cc1 (stereo not drawn) [Compound 9]
IC50 (vasopressin V1a receptor): 1.5 µM
Receptor Binding (% Inh. @ concentration in μM) V2 (cloned human V2 receptor; 10 μM test compound): 63% @ 10

CN(C)CCC1CCN(C(=O)c2ccc(NC(=O)c3ccccc3-c3ccccc3)cc2)c2ccccc2S1 (stereo not drawn) [Compound 11, 2-(2-Dimethylaminoethyl)-5-(4-(2-phenylbenzoylamino)benzoyl)-1,5-benzothiazepine]
Receptor Binding (% Inh. @ concentration in μM) V1a (vasopressin V1a receptor; 10 μM test compound): 63% @ 10
IC50 (cloned human V2 receptor): 0.43 µM

CN(C)CCC1CCN(C(=O)c2ccc(N)cc2)c2ccccc2S1 (stereo not drawn) [Compound 12]
Receptor Binding (% Inh. @ concentration in μM) V1a (vasopressin V1a receptor; 10 μM test compound): 35% @ 10
Receptor Binding (% Inh. @ concentration in μM) V2 (cloned human V2 receptor; 10 μM test compound): 6% @ 10

CNCCC1CCN(C(=O)c2ccc(NC(=O)c3ccccc3C)cc2)c2ccccc2S1 (stereo not drawn) [Compound 14]
Receptor Binding (% Inh. @ concentration in μM) V1a (vasopressin V1a receptor; 1 μM test compound): 50% @ 1
Receptor Binding (% Inh. @ concentration in μM) V2 (cloned human V2 receptor; 1 μM test compound): 28% @ 1

Cc1ccccc1C(=O)Nc1ccc(C(=O)N2CCC(CCN)Sc3ccccc32)cc1 (stereo not drawn) [Compound 15, 2-(2-Aminoethyl)-5-[4-(2-methylbenzoylamino)benzoyl]-1,5-benzothiazepine]
Receptor Binding (% Inh. @ concentration in μM) V1a (vasopressin V1a receptor; 1 μM test compound): 42% @ 1
Receptor Binding (% Inh. @ concentration in μM) V2 (cloned human V2 receptor; 1 μM test compound): 47% @ 1

O=C(Nc1ccc(C(=O)N2CCC(CCO)Sc3ccccc32)cc1)c1ccccc1-c1ccccc1 (stereo not drawn) [Compound 17]
IC50 (vasopressin V1a receptor): 0.097 µM
IC50 (cloned human V2 receptor): 0.008 µM

Cc1ccccc1C(=O)Nc1ccc(C(=O)N2CCC(CCO)Sc3ccccc32)cc1 (stereo not drawn) [Compound 18]
IC50 (vasopressin V1a receptor): 0.041 µM
IC50 (cloned human V2 receptor): 0.048 µM

O=C(Nc1ccc(S(=O)(=O)N2CCC(CCO)Sc3ccccc32)cc1)c1ccccc1-c1ccccc1 (stereo not drawn) [Compound 19, 2-(2-Hydroxyethyl)-5-[4-(2-phenylbenzoylamino)-benzenesulfonyl]-1,5-benzothiazepine]
Receptor Binding (% Inh. @ concentration in μM) V1a (vasopressin V1a receptor; 1 μM test compound): 34% @ 1
Receptor Binding (% Inh. @ concentration in μM) V2 (cloned human V2 receptor; 1 μM test compound): 27% @ 1

Cc1ccccc1C(=O)Nc1ccc(CN2C(=O)CC(CCO)Sc3ccccc32)cc1 (stereo not drawn) [Compound 22, 2-(2-Hydroxyethyl)-5-(4-(2-methylbenzoylamino)benzyl)-1,5-benzothiazepine-4-one]
Receptor Binding (% Inh. @ concentration in μM) V1a (vasopressin V1a receptor; 1 μM test compound): 54% @ 1
Receptor Binding (% Inh. @ concentration in μM) V2 (cloned human V2 receptor; 1 μM test compound): 33% @ 1

O=C(Nc1ccc(CN2C(=O)CC(CCO)Sc3ccccc32)cc1)c1ccccc1-c1ccccc1 (stereo not drawn) [Compound 23, 2-(2-Hydroxyethyl)-5-(4-(2-phenylbenzoylamino)benzyl)-1,5-benzothiazepine-4-one]
Receptor Binding (% Inh. @ concentration in μM) V1a (vasopressin V1a receptor; 1 μM test compound): 33% @ 1
Receptor Binding (% Inh. @ concentration in μM) V2 (cloned human V2 receptor; 1 μM test compound): 43% @ 1

O=C(O)CC1CCN(C(=O)c2ccc(NC(=O)c3ccccc3-c3ccccc3)cc2)c2ccccc2[S+]1[O-] (stereo not drawn) [Compound 24, 2-Carboxymethyl-1-oxo-5-(4-(2-phenylbenzoylamino)benzoyl)-1,5-benzothiazepine]
inhibition at 1 µM (vasopressin V1a receptor; 1 μM test compound): 0%
IC50 (cloned human V2 receptor): 0.108 µM

O=CCC1CCN(C(=O)c2ccc(NC(=O)c3ccccc3-c3ccccc3)cc2)c2ccccc2S1 (stereo not drawn) [Compound 25, 2-[5-[4-(2-Phenylbenzoylamino)benzoyl]-1,5-benzothiazepine]acetaldehyde]
inhibition at 1 µM (vasopressin V1a receptor; 1 μM test compound): 30%
IC50 (cloned human V2 receptor): 0.014 µM

N#CCCC1CCN(C(=O)c2ccc(NC(=O)c3ccccc3-c3ccccc3)cc2)c2ccccc2S1 (stereo not drawn) [Compound 30]
Receptor Binding (% Inh. @ concentration in μM) V1a (vasopressin V1a receptor; 0.1 μM test compound): 34% @ .1
IC50 (cloned human V2 receptor): 0.069 µM

O=C(O)CCC1CCN(C(=O)c2ccc(NC(=O)c3ccccc3-c3ccccc3)cc2)c2ccccc2S1 (stereo not drawn) [Compound 31]
inhibition at 0.1 µM (vasopressin V1a receptor; 0.1 μM test compound): 30%
IC50 (cloned human V2 receptor): 0.009 µM

O=C(Nc1ccc(C(=O)N2CCC(CCS(=O)(=O)O)Sc3ccccc32)cc1)c1ccccc1-c1ccccc1 (stereo not drawn) [Compound 32, 2-Ethyl[5-[4-(2-phenylbenzoylamino)benzoyl]-1,5-benzothiazepin]sulfonic Acid]
inhibition at 0.1 µM (vasopressin V1a receptor; 0.1 μM test compound): 10%
IC50 (cloned human V2 receptor): 0.012 µM

O=C(Nc1ccc(C(=O)N2CCC(CCO)S(=O)(=O)c3ccccc32)cc1)c1ccccc1-c1ccccc1 (stereo not drawn) [Compound 35, 2-(2-Hydroxyethyl)-1-dioxo-5-(4-(2-phenylbenzoylamino)-benzoyl)-1,5-benzothiazepine]
Receptor Binding (% Inh. @ concentration in μM) V1a (vasopressin V1a receptor; 0.1 μM test compound): 2% @ .1
Receptor Binding (% Inh. @ concentration in μM) V2 (cloned human V2 receptor; 0.1 μM test compound): 20% @ .1

O=C(Nc1ccc(C(=O)N2CCC(CCO)[S+]([O-])c3ccccc32)cc1)c1ccccc1-c1ccccc1 (stereo not drawn) [Compound 36, 2-(2-hydroxyethyl)-1-oxo-5-(4-(2-phenylbenzoylamino)-benzoyl)-1,5-benzothiazepine]
Receptor Binding (% Inh. @ concentration in μM) V1a (vasopressin V1a receptor; 0.1 μM test compound): 0 @ .1%
Receptor Binding (% Inh. @ concentration in μM) V2 (cloned human V2 receptor; 0.1 μM test compound): 38% @ .1

COC(=O)CC1CCN(C(=O)c2ccc(NC(=O)c3ccccc3-c3ccccc3)cc2)c2ccccc2S1 (stereo not drawn) [Compound 37, 2-Methyl-[5-(4-(2-phenylbenzoylamino)benzoyl)-1,5-benzothiazepine]acetate]
Receptor Binding (% Inh. @ concentration in μM) V1a (vasopressin V1a receptor; 0.1 μM test compound): 17% @ .1
IC50 (cloned human V2 receptor): 0.05 µM

From patent publication US6489321B1, “Nonpeptide substituted benzothiazepines as vasopressin antagonists” (Ortho-McNeil Pharmaceutical, Inc., priority 1999, dated 2002)
